The test system of one data set is malignant brain tumors. Conditions: clinical use of BPA; cited from earlier work.
Data set [1] deals with subcutaneous 9L gliosarcomas. The data set is described as follows: Boron biodistribution after intravenous infusion in rat 9L gliosarcoma model (Examples 6 and 7). The data set is classed as in vivo, Fischer 344 rats. Here is the method:
This example used the experimental rat 9L gliosarcoma model and the protocol used to administer porphyrins by intravenous infusion that were reported in J. NeuroOncol, 52, 111-117, 2001. Six (6) male Fischer 344 rats bearing subcutaneous 9L gliosarcomas were infused intravenously with CuTCPBr at a total dose of 220 μg/gbw over 48 hours. Tumor and blood were sampled from each at zero, one, two and three days after the end of infusion and the boron concentrations measured. In this example, the biodistribution of CuTCPBr was compared to CuTCPH. A group of six (6) male Fischer 344 rats bearing subcutaneous 9L gliosarcomas were infused intravenously with CuTCPBr at a total dose of 220 μg/gbw over 48 hours. A second group of four (4) male Fischer 344 rats bearing subcutaneous 9L gliosarcomas were infused intravenously with CuTCPH at a total dose of 195 μg/gbw. over 48 hours. Boron concentrations in tissues from both groups of rats were taken three days after the end of infusion. The results for the CuTCPBr group of rats are listed in column 2 of Table 6 and the results for the CuTCPH group of rats are listed in column 4 of Table 6. To account for the difference in porphyrin dose (195 μg/gbw for CuTCPH versus 220 μg/gbw for CuTCPBr) and the difference in % boron in each porphyrin (31.8% for CuTCPH versus 21.7 for CuTCPBr), the boron concentrations in tissues from rats given CuTCPBr were normalized so that they would be equivalent to the boron concentrations of rats given CuTCPH. This was done by multiplying the boron concentrations in the CuTCPBr group of rats by the CuTCPBr to CuTCPH boron dose ratio of 1.3. The normalized boron concentrations for the CuTCPBr group of rats are listed in column 3 of Table 6.

In data set [2] the test system is EMT-6 mammary carcinomas. Conditions: 180 μg/gbw CuTCPH, 6 ip injections over 2 days, cited from earlier work.
Data set [3] has as its system subcutaneous 9L gliosarcomas. The data set is described as follows: CuTCPH dose increase and tumor boron concentration in rats with 9L gliosarcomas. It counts as in vivo, Fischer 344 rats. The source says:
Toxicity is the critical factor, and since no toxicity was observed, the dose can be increased to achieve tumor boron concentrations higher than those in Examples 2 and 3.

The subject of data set [4] is EMT-6 mammary carcinomas. As to the kind of experiment: CuTCPH boron biodistribution in EMT-6 tumor-bearing mice (prior results, Rad. Res. 155, 603-610, 2001). It counts as in vivo, BALB/c mice. Here is the method:
There is a larger vascular system surrounding the dorsal thorax compared with the leg, which may be a factor. However, in the case of CuTCPH, the boron concentration was 30% higher in leg tumors compared to back tumors. Normalizing to the slightly higher dose of the first study, the tumor boron concentration should be about 29 and 15 μg/g at 2d and 5d, respectively, which are still low. Studies are underway to repeat these experiments.
The biodistribution properties for CuTCPBr are similar to other lipophilic tetracarboranyl tetraphenylporphyrins studied previously, particularly the results for CuTCPH which were reported in Rad. Res. 155, 603-610, 2001 and are listed in columns four and five of Table 4. The CuTCPH results were based on two groups of seven (7) BALB/c mice which were given 180 μg/gbw CuTCPH in six intraperitoneal injections over 2 days. The first group of mice was euthanized two days after the last injection and the second group four days after the last injection. The boron concentrations in different tissues were then measured.

Setting [5] is: 195 μg/gbw CuTCPH (61.8 μg B/gbw) iv over 48 hours, 3 days after end of infusion.

Data on two molecules can be found in patent US6759403B2, “Metalloporphyrins and their uses as radiosensitizers for radiation therapy” (Brookhaven Science Associates, LLC, priority 2001, dated 2004).

Read-outs that look alike come from different tables or passages of the source.

For the molecule `N[C@@H](Cc1ccc(B(O)O)cc1)C(=O)O` [BPA, p-boronophenylalanine], in the data set on malignant brain tumors, the “blood boron concentration relative to that found in tumor” value is recorded as “approximately one-third”, the “brain boron concentration relative to that found in tumor” value is recorded as “approximately one-third” and the “chemical toxicity associated with usage” value is “not eliciting any chemical toxicity”.
Consider “copper tetracarboranylmethoxyphenylporphyrin [CuTCPH]”, for which, in data set [1] (setting [5]), the “Boron Concentration, Brain” value is recorded as 3.2 (1.4) μg/g; the “Boron Concentration, Kidney” value is 16 (2) μg/g; the “Boron Concentration, Lacrimal Gland” value is reported as 45 (11) μg/g; the “Boron Concentration, Liver” value was 638 (53) μg/g. In data set [1] (setting [5]), the “Boron Concentration, Lung” value is given as 83 (12) μg/g; the “Boron Concentration, Lymph Nodes” value is listed as 284 (68) μg/g; the “Boron Concentration, Parotid Gland” value is 125 (26) μg/g; the “Boron Concentration, Spleen” value was 832 (169) μg/g. Also, in data set [1] (setting [5]), the “Boron Concentration, Tongue” value was 47 (11) μg/g; the “Boron Concentration, Tumor” value is given as 63 (23) μg/g; the “Boron concentration, Ears” value is 17 (3) μg/g. In data set [1] (rats, 220 μg/gbw CuTCPBr or 195 μg/gbw CuTCPH iv over 48 hours), the Toxicity result was “does not appear to be a major problem”. In the data set with EMT-6 mammary carcinomas [2] (after 2 days), the “Boron Concentration, Blood” value is given as 0 (0) μg/g; the “Boron Concentration, Brain” value is on record as 0.2 (0.1) μg/g; the “Boron Concentration, Ears (skin)” value is recorded as 8.4 (2.1) μg/g; the “Boron Concentration, Liver” value is 562 (79) μg/g. The “Boron Concentration, Tumor” value in the data set on EMT-6 mammary carcinomas [2] (after 2 days) is given as 62 (10) μg/g. In addition, in the data set with EMT-6 mammary carcinomas [2] (after 4 days), the “Boron Concentration, Blood” value is given as 0.3 (0.1) μg/g; the “Boron Concentration, Brain” value is 0.7 (0.3) μg/g; the “Boron Concentration, Ears (skin)” value was 14 (2.6) μg/g; the “Boron Concentration, Liver” value was 534 (124) μg/g. For the same molecule, in the data set on EMT-6 mammary carcinomas [2] (after 4 days), the “Boron Concentration, Tumor” value is listed as 71 (9) μg/g. The “tumor boron concentration, median” value in data set [3] (CuTCPH total dose 195 mg/kg body weight) was 64 µg/g. For the same molecule, in data set [3] (CuTCPH total dose 450 mg/kg body weight), the “tumor boron concentration, median” value amounted to 117 µg/g. For the same molecule, the “decrease of liver boron from two to four days” value in the data set with EMT-6 mammary carcinomas [4] (180 μg/gbw CuTCPH) came out at 5%. For the same molecule, the “boron concentration higher in leg tumors compared to back tumors” value in the data set on EMT-6 mammary carcinomas [4] (CuTCPH, leg versus back tumors) is recorded as 30%.
